Results as given in patent US8541418B2, “Inhibitors of polo-like kinase” (Elan Pharmaceutical, Inc., priority 2009, dated 2013).
Read-outs that look alike come from different tables or passages of the source.

How the values were obtained:
PLK2 [1] = target: T1, PLK2 (Homo sapiens, UniProt Q9NYY3); assay: Kinase panel screening at InVitrogen, PLK2; details: 10 μM compound
PLK1 [2] = target: T2, PLK1 (Homo sapiens, UniProt P53350); assay: PLK TR-FRET peptide assay, PLK1; format: biochemical
PLK3 = PLK3 (Homo sapiens, UniProt Q9H4B4); assay: PLK TR-FRET peptide assay, PLK3; format: biochemical
Sequence of PLK3 (Q9H4B4 whole entry): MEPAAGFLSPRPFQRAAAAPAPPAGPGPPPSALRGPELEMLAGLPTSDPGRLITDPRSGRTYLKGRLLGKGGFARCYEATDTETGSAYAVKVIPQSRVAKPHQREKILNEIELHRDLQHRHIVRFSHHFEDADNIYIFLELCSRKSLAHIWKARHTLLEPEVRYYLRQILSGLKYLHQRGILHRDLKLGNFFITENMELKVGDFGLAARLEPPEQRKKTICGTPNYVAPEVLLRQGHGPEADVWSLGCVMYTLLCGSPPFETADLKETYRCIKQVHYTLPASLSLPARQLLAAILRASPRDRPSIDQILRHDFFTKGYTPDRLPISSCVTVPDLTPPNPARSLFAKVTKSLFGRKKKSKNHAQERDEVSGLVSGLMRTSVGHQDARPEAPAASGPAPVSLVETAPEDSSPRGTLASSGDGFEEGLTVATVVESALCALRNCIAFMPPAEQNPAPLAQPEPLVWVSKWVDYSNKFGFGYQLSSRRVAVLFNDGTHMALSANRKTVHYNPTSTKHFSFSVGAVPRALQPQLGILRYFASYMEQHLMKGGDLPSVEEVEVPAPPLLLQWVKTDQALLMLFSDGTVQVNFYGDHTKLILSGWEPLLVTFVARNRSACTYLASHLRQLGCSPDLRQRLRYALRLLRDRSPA

PLK2 [3] = target: T1, PLK2; assay: PLK TR-FRET peptide assay, PLK2; format: biochemical; details: for IC50: PLK TR-FRET peptide assay, read-out: Plk2 IC50; for relative PLK2 activity of the enantiomers: compared with the opposite enantiomer
PLK1 [4] = target: T2, PLK1; assay: Kinase panel screening at InVitrogen, PLK1; details: 10 μM compound
ABL1 = ABL1 (Homo sapiens, UniProt P00519); assay: Kinase panel screening and titration, ABL1; details: read-out: inhibition of ABL1
Sequence of ABL1 (P00519 whole entry): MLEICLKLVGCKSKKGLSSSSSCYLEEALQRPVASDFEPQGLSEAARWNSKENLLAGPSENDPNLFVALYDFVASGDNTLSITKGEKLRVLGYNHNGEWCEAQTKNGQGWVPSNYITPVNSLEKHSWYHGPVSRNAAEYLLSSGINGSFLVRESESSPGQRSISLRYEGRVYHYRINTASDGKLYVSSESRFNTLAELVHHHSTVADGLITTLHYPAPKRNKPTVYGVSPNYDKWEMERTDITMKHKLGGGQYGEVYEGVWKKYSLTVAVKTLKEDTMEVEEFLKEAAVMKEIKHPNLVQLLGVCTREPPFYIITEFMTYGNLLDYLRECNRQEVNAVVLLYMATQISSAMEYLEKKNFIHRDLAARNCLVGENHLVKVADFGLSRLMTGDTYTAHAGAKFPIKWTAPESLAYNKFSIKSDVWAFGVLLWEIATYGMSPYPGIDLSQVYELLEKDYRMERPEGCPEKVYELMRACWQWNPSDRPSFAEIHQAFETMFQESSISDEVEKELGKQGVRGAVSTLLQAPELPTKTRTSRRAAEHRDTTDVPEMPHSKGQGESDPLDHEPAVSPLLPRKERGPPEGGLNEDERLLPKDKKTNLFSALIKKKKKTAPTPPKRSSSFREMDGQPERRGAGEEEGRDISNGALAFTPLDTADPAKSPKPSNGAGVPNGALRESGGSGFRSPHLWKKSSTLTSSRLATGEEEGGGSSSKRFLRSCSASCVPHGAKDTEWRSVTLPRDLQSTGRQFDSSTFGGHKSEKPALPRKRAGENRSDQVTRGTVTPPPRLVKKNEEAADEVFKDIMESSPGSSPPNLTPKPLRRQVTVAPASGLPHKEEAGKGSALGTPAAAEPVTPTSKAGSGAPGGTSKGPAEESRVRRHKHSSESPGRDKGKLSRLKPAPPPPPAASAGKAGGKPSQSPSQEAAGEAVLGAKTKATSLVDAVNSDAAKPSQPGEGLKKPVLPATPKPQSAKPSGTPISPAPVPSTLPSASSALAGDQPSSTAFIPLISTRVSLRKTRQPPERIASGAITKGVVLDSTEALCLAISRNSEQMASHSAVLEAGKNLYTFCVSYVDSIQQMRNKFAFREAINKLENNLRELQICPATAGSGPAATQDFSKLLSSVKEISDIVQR

[5] = test system: over 300 kinases, including CDK-1, CDK-2, CDK-5, CLK-1, CLK-2, CLK-3, CLK-4, NEK-1, NEK-2, NEK-4, NEK-6, NEK-7, MAP4K4 and STK16; assay: Kinase panel screening at InVitrogen, over 300 kinases; details: 10 μM compound; all but 21 of the kinases, including CDK-1, CDK-2, CDK-5, CLK-1 to CLK-4, NEK-1, -2, -4, -6, -7, MAP4K4, STK16
KDR = KDR (Homo sapiens, UniProt P35968); assay: Kinase panel screening and titration, KDR; details: read-out: inhibition of KDR
Sequence of KDR (P35968 20-1356): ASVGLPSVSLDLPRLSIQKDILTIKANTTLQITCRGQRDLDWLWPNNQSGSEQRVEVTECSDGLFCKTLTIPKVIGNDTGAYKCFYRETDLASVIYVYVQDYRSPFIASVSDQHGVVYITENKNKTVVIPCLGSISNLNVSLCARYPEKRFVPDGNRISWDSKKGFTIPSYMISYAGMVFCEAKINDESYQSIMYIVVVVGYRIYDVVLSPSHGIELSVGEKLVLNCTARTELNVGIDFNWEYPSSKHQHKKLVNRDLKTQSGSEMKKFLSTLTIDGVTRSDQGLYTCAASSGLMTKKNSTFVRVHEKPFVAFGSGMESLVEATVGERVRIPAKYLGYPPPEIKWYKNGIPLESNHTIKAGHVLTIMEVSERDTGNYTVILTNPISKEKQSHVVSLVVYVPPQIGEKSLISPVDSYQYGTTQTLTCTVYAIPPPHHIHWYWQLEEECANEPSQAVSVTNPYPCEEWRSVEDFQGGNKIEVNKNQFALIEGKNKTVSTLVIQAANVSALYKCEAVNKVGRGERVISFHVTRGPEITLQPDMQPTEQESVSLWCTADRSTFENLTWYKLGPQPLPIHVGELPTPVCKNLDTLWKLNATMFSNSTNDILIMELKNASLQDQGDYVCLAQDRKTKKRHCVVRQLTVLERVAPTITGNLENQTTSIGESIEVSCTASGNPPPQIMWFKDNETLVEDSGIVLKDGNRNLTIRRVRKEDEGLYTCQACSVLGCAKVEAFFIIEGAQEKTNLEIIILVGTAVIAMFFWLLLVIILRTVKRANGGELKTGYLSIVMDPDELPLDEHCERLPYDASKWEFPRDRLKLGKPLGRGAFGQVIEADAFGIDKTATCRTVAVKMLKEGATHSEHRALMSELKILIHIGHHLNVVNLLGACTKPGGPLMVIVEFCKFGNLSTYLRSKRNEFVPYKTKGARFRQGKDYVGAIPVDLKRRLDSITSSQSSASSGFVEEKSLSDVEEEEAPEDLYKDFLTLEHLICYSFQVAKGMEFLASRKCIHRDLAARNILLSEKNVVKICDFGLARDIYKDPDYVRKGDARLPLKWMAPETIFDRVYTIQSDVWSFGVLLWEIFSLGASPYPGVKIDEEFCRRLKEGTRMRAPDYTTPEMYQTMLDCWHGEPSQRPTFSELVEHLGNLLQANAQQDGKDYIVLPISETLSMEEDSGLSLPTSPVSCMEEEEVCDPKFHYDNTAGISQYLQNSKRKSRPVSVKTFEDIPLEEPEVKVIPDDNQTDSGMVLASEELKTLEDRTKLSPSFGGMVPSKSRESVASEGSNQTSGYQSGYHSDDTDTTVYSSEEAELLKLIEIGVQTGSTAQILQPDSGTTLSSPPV

[6] = GST-PLK3, 15 min reaction, read-out: Plk3 IC50

T2 sequence (P53350 whole entry): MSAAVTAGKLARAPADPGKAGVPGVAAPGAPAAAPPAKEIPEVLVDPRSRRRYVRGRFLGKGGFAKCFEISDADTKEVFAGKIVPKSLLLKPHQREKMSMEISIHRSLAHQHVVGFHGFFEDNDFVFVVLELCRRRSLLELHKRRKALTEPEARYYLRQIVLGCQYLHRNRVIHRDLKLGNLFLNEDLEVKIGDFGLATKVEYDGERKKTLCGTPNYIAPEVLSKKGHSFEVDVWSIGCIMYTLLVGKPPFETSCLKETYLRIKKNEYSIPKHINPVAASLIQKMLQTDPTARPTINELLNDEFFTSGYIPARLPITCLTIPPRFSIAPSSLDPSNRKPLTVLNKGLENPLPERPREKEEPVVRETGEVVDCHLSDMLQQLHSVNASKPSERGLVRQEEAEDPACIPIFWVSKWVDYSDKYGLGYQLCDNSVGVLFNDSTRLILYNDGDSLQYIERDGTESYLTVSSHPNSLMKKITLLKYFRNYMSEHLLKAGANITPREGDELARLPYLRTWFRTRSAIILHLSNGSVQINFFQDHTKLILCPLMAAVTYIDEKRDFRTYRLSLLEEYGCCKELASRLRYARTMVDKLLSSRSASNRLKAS
T1 sequence (Q9NYY3 whole entry): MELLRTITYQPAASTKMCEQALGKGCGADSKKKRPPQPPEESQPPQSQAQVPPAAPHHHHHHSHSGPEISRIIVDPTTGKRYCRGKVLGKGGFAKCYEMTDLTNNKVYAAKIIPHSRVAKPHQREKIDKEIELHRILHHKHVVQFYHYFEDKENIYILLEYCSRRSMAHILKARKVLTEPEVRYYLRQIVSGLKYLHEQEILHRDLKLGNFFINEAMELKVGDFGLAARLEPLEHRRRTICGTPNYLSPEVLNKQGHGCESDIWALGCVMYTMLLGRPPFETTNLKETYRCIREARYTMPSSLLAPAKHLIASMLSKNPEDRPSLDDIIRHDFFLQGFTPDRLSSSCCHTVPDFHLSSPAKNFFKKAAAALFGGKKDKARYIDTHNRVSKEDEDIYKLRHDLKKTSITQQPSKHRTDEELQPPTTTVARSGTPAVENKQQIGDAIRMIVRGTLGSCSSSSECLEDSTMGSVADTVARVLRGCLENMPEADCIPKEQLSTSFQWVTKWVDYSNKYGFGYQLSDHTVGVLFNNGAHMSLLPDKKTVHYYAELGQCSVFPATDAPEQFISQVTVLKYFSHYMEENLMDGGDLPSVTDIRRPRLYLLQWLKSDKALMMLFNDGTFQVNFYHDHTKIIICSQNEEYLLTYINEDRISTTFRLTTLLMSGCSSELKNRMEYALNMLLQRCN

Row | SMILES | IC50 (PLK1 [2]; GST-PLK1, 60 min reaction) | IC50 (PLK3; [6]) | IC50 (PLK2 [3]; GST-PLK2, 60 min reaction) | IC50 (PLK1 [2]; GST-PLK1) | IC50 (PLK3; GST-PLK3, read-out: Plk3 IC50) | IC50 (PLK2 [3]; GST-PLK2) | also measured
1 | CC[C@@H]1C(=O)N(C)c2cnc(-n3ccnc3-c3ccccc3)nc2N1C1CCCC1 [Example 26, (R)-8-cyclopentyl-7-ethyl-5-methyl-2-(2-phenyl-1H-imidazol-1-yl)-7,8-dihydropteridin-6(5H)-one] |  |  |  |  |  |  | activity against PLK2 in kinase panel (PLK2 [1]): potent
2 | CC[C@@H]1C(=O)N(C)c2cnc(-n3ccnc3-c3cscn3)nc2N1C1CCCC1 [Example 68, (R)-8-cyclopentyl-7-ethyl-5-methyl-2-(2-(thiazol-4-yl)-1H-imidazol-1-yl)-7,8-dihydropteridin-6(5H)-one] | < 1000 nM | < 1000 nM | < 1000 nM |  |  |  | activity against PLK2 in kinase panel (PLK2 [1]): potent; activity against PLK1 in kinase panel (PLK1 [4]): potent
3 | CC[C@@]12CCCN1c1nc(-n3ccnc3-c3ccccc3)ncc1N(C)C2=O [Example 76, (S)-6a-ethyl-5-methyl-2-(2-phenyl-1H-imidazol-1-yl)-6a,7,8,9-tetrahydropyrrolo[2,1-h]pteridin-6(5H)-one] |  |  |  |  |  |  | activity against PLK2 in kinase panel (PLK2 [1]): potent; activity against PLK1 in kinase panel (PLK1 [4]): potent
4 | CC[C@@H]1C(=O)N(C)c2cnc(-n3ccnc3-c3cccc(F)c3)nc2N1C1CCOC1 (stereo partly drawn) [Example 192, (7R)-7-ethyl-2-(2-(3-fluorophenyl)-1H-imidazol-1-yl)-5-methyl-8-(tetrahydrofuran-3-yl)-7,8-dihydropteridin-6(5H)-one] | < 1000 nM | 1000 to 10000 nM | < 1000 nM |  |  |  | activity against PLK2 in kinase panel (PLK2 [1]): potent; inhibition at 10 µM (ABL1): > 80%; inhibition of kinases in panel of over 300 [5]: below 40%; activity against PLK1 in kinase panel (PLK1 [4]): potent; inhibition at 10 µM (KDR): > 80%
5 | CC[C@@H]1C(=O)N(C)c2cnc(-n3ccnc3-c3ccc(F)cc3)nc2N1c1cccc(C#N)c1 [Example 358, (R)-3-(7-ethyl-2-(2-(4-fluorophenyl)-1H-imidazol-1-yl)-5-methyl-6-oxo-6,7-dihydropteridin-8(5H)-yl)benzonitrile] | 1000 to 10000 nM | 1000 to 10000 nM | < 1000 nM |  |  |  | relative PLK2 activity of the enantiomers (PLK2 [3]): more active compound
6 | CC[C@H]1C(=O)N(C)c2cnc(-n3ccnc3-c3ccc(F)cc3)nc2N1c1cccc(C#N)c1 [Example 359, (S)-3-(7-ethyl-2-(2-(4-fluorophenyl)-1H-imidazol-1-yl)-5-methyl-6-oxo-6,7-dihydropteridin-8(5H)-yl)benzonitrile] | > 50000 nM | 10000 to 50000 nM | 1000 to 10000 nM |  |  |  | 
7 | CCC1C(=O)N(C)c2cnc(-c3cn[nH]c3-c3nccs3)nc2N1c1ccc(F)cc1 (centres unmarked) [Example 370] | < 1000 nM | 1000 to 10000 nM | < 1000 nM |  |  |  | 
8 | CCC1C(=O)N(C)c2cnc(-c3cn[nH]c3-c3nccs3)nc2N1c1cccc(C#N)c1 (centres unmarked) [Example 372, 3-(7-ethyl-5-methyl-6-oxo-2-(5-(thiazol-2-yl)-1H-pyrazol-4-yl)-6,7-dihydropteridin-8(5H)-yl)benzonitrile] | 1000 to 10000 nM | 1000 to 10000 nM | < 1000 nM |  |  |  | 
9 | CC[C@@H]1C(=O)N(C)c2cnc(-c3cn[nH]c3-c3nccs3)nc2N1c1ccc(Cl)cc1 [Example 382, (R)-8-(4-chlorophenyl)-7-ethyl-5-methyl-2-(5-(thiazol-2-yl)-1H-pyrazol-4-yl)-7,8-dihydropteridin-6(5H)-one] |  |  |  | < 1000 nM | < 1000 nM | < 1000 nM | relative PLK2 activity of the enantiomers (PLK2 [3]): more active compound
10 | CC[C@H]1C(=O)N(C)c2cnc(-c3cn[nH]c3-c3nccs3)nc2N1c1ccc(Cl)cc1 [Example 383, (S)-8-(4-chlorophenyl)-7-ethyl-5-methyl-2-(5-(thiazol-2-yl)-1H-pyrazol-4-yl)-7,8-dihydropteridin-6(5H)-one] |  |  |  | 10000 to 50000 nM | > 50000 nM | 1000 to 10000 nM | 
11 | CC[C@@H]1C(=O)N(C)c2cnc(-n3cnc(C(=O)N(C)C)c3)nc2N1C1CCCC1 [Example 384, (R)-1-(8-cyclopentyl-7-ethyl-5-methyl-6-oxo-5,6,7,8-tetrahydropteridin-2-yl)-N,N-dimethyl-1H-imidazole-4-carboxamide] |  |  |  | 1000 to 10000 nM | 10000 to 50000 nM | 1000 to 10000 nM | 
12 | CCC1C(=O)N(C)c2cnc(-n3ccnc3-c3ccc(F)cc3)nc2N1c1ccc(Cl)cc1 (centres unmarked) [Example 388, 8-(4-chlorophenyl)-7-ethyl-2-(2-(4-fluorophenyl)-1H-imidazol-1-yl)-5-methyl-7,8-dihydropteridin-6(5H)-one] |  |  |  | 1000 to 10000 nM | 1000 to 10000 nM | < 1000 nM | 
13 | CC[C@@H]1C(=O)N(C)c2cnc(-c3cnsc3-c3ccc(F)cc3)nc2N1c1cccc(C#N)c1 [Example 391, (R)-3-(7-ethyl-2-(5-(4-fluorophenyl)isothiazol-4-yl)-5-methyl-6-oxo-6,7-dihydropteridin-8(5H)-yl)benzonitrile] |  |  |  | < 1000 nM | < 1000 nM | < 1000 nM | relative PLK2 activity of the enantiomers (PLK2 [3]): more active compound
14 | CC[C@H]1C(=O)N(C)c2cnc(-c3cnsc3-c3ccc(F)cc3)nc2N1c1cccc(C#N)c1 [Example 392, (S)-3-(7-ethyl-2-(5-(4-fluorophenyl)isothiazol-4-yl)-5-methyl-6-oxo-6,7-dihydropteridin-8(5H)-yl)benzonitrile] |  |  |  | > 50000 nM | > 50000 nM | > 50000 nM | 
15 | CC[C@H]1C(=O)N(C)c2cnc(-c3cn[nH]c3-c3nccs3)nc2N1c1ccc(F)c(F)c1 [Example 393, (S)-8-(3,4-difluorophenyl)-7-ethyl-5-methyl-2-(5-(thiazol-2-yl)-1H-pyrazol-4-yl)-7,8-dihydropteridin-6(5H)-one] |  |  |  | 10000 to 50000 nM | > 50000 nM | 1000 to 10000 nM | 
16 | CC[C@@H]1C(=O)N(C)c2cnc(-c3cn[nH]c3-c3nccs3)nc2N1c1ccc(F)c(F)c1 [Example 395, (R)-8-(3,4-difluorophenyl)-7-ethyl-5-methyl-2-(5-(thiazol-2-yl)-1H-pyrazol-4-yl)-7,8-dihydropteridin-6(5H)-one] |  |  |  | < 1000 nM | 1000 to 10000 nM | < 1000 nM | relative PLK2 activity of the enantiomers (PLK2 [3]): more active compound
